# Reference: patent US10702543B2, “Intranuclear protein transduction through a nucleoside salvage pathway” (The United States Government as represented by The …, priority 2007, dated 2020)
# How the values were obtained:
# ENT2 [1] = molecular target: T1, ENT2 (Homo sapiens, UniProt Q14542); conditions: read-out: Ki of NBMPR for ENT2; Ward et al., J. Biol. Chem. 2000; cited from earlier work
# T1 sequence (Q14542 1-456): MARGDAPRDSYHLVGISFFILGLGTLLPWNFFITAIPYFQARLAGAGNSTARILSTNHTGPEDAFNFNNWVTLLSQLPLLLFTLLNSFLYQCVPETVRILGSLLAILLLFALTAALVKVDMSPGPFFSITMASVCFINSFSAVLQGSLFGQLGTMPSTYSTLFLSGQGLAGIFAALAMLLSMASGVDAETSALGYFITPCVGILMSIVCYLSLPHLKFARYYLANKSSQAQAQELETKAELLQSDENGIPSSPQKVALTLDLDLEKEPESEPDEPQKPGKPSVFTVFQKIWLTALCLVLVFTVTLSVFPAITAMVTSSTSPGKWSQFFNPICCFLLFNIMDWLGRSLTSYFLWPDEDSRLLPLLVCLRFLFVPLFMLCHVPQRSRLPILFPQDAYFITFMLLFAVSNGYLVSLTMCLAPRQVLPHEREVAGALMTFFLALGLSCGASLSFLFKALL
# ENT2 [2] = molecular target: T1, ENT2; test: Inhibition of ENT2 by NBMPR (Ward et al.); type: biochemical
# [3] = system: ENT subtype equilibrative, insensitive (ei); conditions: low concentrations (e.g., <1 μM) of NBMPR; cited from earlier work
# ENT4 = molecular target: T2, ENT4 (Homo sapiens, UniProt Q7RTT9); conditions: cited from earlier work
# T2 sequence (Q7RTT9 1-530): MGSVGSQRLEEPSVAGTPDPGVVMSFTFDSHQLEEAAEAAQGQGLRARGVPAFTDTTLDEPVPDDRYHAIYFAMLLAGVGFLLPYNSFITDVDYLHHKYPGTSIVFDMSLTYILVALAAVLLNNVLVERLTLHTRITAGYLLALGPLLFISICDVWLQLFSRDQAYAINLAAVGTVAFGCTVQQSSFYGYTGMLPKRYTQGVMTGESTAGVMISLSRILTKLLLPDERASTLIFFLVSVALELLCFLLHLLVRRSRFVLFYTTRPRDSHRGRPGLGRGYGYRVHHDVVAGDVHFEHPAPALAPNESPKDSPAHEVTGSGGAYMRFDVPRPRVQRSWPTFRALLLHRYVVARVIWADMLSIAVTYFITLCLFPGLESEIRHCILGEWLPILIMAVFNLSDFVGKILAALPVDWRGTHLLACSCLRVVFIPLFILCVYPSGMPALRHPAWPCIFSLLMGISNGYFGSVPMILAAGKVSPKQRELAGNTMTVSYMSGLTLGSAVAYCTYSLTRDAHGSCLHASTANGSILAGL
# cells in tissue culture = conditions: cited from earlier work
Compound,Ki (ENT2 [1]) [nM],ENT2 activity (ENT2 [2]; at 10 μM NBMPR),expected suppression of ENT2 activity (ENT2 [2]; by 10 μM NBMPR) [%],effect of NBMPR on the ei subtype [3],inhibition of ENT4 by NBMPR (ENT4),harm to cells that it penetrates (cells in tissue culture)
"O=[N+]([O-])c1ccc(CSc2ncnc3c2ncn3C2OC(CO)C(O)C2O)cc1 (stereo not drawn) [NBMPR, Nitrobenzylmercaptopurine riboside]",2800,retains moderate activity,> 50,unaffected,weakly inhibited,
"mAb 3E10: monoclonal anti-DNA antibody produced by hybridoma 3E10, ATCC accession number PTA-2439",,,,,,no harm
